GI50 data for 3 molecules are collected here from US20240358848A1, “ANTITUMOR COMPOUND AND USE THEREOF” (priority 2021, published 2024).

As usually defined, the GI50 is the concentration giving 50% growth inhibition.

The assay deals with KPL-4 Cells. The assay can be described thus: Cell proliferation inhibition assay (CellTiter-Glo, 72 h). It is filed as cell-based. As for the experimental part: KPL-4 Cells in the logarithmic phase of growth were collected and re-suspended with fresh RPMI1640 complete cell culture medium, and adjusted to 2×10^4 cells/mL after cell counting. Cells were seeded into 96-well cell culture plates at 100 μL/well, and placed in a CO2 incubator (37° C., 5% CO2) overnight. In the next day, one of the cell culture plates were taken out, balanced to room temperature, and CellTiter-Glo reagent (Promega, USA), which was pre-balanced to room temperature and evenly mixed, was added into the plate at 100 μl/well. The plate was kept in dark for 30 min, and then luminescence value was read with a microplate reader (denoted as G0 value). The other cell culture plates were taken out and added with different concentrations of test compounds or DMSO (final concentration 0.5%) in corresponding wells. After incubated for 72 h in a CO2 incubator, the cell culture plates were balanced to room temperature and tested for cell viabilities using CellTiter-Glo reagent as described above (denoted as G3 value).
The cell proliferation rates were calculated using the following formula: Cell proliferation rate (%)=(mean of G3compound−mean of G0)/(mean of G3DMSO−mean of G0)×100.
For orientation: ATP-based viability assays read luminescence as a measure of living cells.

The mark [1] stands for this setting: KPL4, KPL-4, 72 h, read-out: GI50.

Like-named read-outs stand apart in the source and are kept apart here.

For the molecule `CC[C@@]1(O)C(=O)OCc2c1cc1n(c2=O)Cc2c-1nc1cc(F)c(C)c3c1c2[C@@H](NC(=O)CO)CC3` [DXd, reference compound], the GI50 (KPL4, 72 h) came out at 0.072 µM.

As for `CC[C@@]1(O)C(=O)OCc2c1cc1n(c2=S)Cc2c-1nc1cc(F)c(C)c3c1c2[C@H](NC(=O)CO)CC3` [Y], the GI50 under setting [1] amounted to 0.0103 µM.

For `CC[C@@]1(O)C(=O)OCc2c1cc1n(c2=S)Cc2c-1nc1cc(F)c(C)c3c1c2[C@@H](NC(=O)CO)CC3` [X], the GI50 under setting [1] was 0.0139 µM.
